# Measured values published in the kinase profiling compilation of Christmann-Franck et al. (2016).
# Experiments:
# Assay in all cases: radiometric filter-binding kinase assay
# [1] = system: AKT2 (human), P31751 [S474D]
# AURKA (human) = AURKA (human) (UniProt O14965)
# AURKB (human) = AURKB (human) (UniProt Q96GD4)
# CHEK1 (human) = CHEK1 (human) (UniProt O14757)
# CSNK1D (human) = CSNK1D (human) (UniProt P48730)
# EEF2K (human) = EEF2K (human) (UniProt O00418)
# EPHB1 (human) = EPHB1 (human) (UniProt P54762)
# EPHB4 (human) = EPHB4 (human) (UniProt P54760)
# FGFR1 (human) = FGFR1 (human) (UniProt P11362)
# FLT1 (human) = FLT1 (human) (UniProt P17948)
# GCK (human) = GCK (human) (UniProt Q12851)
# GSK3B (human) = GSK3B (human) (UniProt P49841)
# HIPK1 (human) = HIPK1 (human) (UniProt Q86Z02)
# HIPK2 (human) = HIPK2 (human) (UniProt Q9H2X6)
# IGF1R (human) = IGF1R (human) (UniProt P08069)
# MAP2K2 (human) = MAP2K2 (human) (UniProt P36507)
# MAP3K1 (human) = MAP3K1 (human) (UniProt Q13233)
# MAP3K5 (human) = MAP3K5 (human) (UniProt Q99683)
# MAP3K9 (human) = MAP3K9 (human) (UniProt P80192)
# MAPK1 (human) = MAPK1 (human) (UniProt P28482)
# MAPK10 (human) = MAPK10 (human) (UniProt P53779)
# MAPK13 (human) = MAPK13 (human) (UniProt O15264)
# MAPK9 (human) = MAPK9 (human) (UniProt P45984)
# MARK4 (human) = MARK4 (human) (UniProt Q96L34)
# MELK (human) = MELK (human) (UniProt Q14680)
# MYLK (human) = MYLK (human) (UniProt Q15746)
# [2] = system: PAK2 (human), Q13177 [T402E]
# PAK6 (human) = PAK6 (human) (UniProt Q9NQU5)
# PKN2 (human) = PKN2 (human) (UniProt Q16513)
# PRKCZ (human) = PRKCZ (human) (UniProt Q05513)
# SRC (human) = SRC (human) (UniProt P12931)
# [3] = target: STK11 CAB39 STRADA (human) (UniProt Q9Y376+Q7RTN6+Q15831)
# SYK (human) = SYK (human) (UniProt P43405)
# TAOK1 (human) = TAOK1 (human) (UniProt Q7L7X3)
# TTK (human) = TTK (human) (UniProt P33981)
# YES1 (human) = YES1 (human) (UniProt P07947)
# YES1 (human), sequence (P07947 whole entry, looked up): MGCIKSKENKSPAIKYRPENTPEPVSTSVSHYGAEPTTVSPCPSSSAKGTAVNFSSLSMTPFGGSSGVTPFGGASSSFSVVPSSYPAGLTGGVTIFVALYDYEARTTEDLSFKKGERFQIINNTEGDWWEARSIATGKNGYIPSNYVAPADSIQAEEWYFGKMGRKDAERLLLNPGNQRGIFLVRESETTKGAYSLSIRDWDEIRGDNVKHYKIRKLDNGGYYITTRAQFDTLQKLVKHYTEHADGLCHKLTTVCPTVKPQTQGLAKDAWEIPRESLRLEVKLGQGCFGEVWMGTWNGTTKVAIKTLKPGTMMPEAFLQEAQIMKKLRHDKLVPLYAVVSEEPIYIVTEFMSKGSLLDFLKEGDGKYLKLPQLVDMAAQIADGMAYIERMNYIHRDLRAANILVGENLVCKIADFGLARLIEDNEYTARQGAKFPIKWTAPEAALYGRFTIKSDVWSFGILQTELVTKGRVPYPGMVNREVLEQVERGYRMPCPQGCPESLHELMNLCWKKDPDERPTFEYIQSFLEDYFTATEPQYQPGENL
# PRKCZ (human), sequence (Q05513 whole entry, looked up): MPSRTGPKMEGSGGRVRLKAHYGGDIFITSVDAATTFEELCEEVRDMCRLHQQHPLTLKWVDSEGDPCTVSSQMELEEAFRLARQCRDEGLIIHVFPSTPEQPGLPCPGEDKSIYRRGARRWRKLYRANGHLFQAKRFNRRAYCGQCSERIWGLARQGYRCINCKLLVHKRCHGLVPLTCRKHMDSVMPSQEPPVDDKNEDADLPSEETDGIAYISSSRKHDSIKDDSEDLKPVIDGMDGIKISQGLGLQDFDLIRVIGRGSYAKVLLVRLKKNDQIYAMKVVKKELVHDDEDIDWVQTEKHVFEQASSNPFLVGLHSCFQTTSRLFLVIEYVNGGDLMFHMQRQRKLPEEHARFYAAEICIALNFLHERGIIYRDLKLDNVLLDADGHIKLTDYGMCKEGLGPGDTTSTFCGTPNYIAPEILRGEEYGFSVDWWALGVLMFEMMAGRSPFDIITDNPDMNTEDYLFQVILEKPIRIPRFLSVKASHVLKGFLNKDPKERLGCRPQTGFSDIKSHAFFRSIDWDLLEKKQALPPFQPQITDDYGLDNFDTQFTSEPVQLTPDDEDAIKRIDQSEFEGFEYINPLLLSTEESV
# MARK4 (human), sequence (Q96L34 whole entry, looked up): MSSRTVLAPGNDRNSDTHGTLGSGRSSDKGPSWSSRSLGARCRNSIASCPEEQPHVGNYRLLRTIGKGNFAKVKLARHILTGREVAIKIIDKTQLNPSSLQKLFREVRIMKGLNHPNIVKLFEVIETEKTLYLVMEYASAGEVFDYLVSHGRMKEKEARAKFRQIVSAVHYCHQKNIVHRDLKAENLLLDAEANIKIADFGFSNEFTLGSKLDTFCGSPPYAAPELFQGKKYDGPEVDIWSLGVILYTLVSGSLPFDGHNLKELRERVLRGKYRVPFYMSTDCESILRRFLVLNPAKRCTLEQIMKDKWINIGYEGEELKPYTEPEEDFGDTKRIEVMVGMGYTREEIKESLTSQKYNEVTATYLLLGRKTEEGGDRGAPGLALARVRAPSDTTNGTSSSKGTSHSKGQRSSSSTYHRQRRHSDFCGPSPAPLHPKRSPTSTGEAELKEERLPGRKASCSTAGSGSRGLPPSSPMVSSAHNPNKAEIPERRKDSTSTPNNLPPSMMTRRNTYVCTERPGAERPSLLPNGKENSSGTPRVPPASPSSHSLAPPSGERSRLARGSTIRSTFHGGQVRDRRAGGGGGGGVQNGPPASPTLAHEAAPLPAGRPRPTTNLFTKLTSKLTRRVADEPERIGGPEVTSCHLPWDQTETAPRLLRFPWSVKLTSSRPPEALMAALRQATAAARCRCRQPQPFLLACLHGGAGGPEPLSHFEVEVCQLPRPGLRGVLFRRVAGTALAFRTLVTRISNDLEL
# AKT2 (human), P31751 [S474D], sequence (P31751 whole entry S474D, looked up): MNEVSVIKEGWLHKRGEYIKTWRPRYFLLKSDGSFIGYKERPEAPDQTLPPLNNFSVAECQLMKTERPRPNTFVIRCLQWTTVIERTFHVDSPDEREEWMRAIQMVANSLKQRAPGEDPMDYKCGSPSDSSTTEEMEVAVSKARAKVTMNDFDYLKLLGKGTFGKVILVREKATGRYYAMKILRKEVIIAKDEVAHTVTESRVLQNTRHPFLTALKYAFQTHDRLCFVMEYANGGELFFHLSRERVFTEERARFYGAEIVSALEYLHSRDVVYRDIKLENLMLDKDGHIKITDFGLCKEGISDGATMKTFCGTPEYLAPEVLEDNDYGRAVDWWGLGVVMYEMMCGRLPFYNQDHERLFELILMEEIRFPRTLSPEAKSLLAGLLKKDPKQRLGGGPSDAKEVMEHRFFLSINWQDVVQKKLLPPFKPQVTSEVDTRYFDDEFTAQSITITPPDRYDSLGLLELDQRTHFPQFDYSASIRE
# PKN2 (human), sequence (Q16513 whole entry, looked up): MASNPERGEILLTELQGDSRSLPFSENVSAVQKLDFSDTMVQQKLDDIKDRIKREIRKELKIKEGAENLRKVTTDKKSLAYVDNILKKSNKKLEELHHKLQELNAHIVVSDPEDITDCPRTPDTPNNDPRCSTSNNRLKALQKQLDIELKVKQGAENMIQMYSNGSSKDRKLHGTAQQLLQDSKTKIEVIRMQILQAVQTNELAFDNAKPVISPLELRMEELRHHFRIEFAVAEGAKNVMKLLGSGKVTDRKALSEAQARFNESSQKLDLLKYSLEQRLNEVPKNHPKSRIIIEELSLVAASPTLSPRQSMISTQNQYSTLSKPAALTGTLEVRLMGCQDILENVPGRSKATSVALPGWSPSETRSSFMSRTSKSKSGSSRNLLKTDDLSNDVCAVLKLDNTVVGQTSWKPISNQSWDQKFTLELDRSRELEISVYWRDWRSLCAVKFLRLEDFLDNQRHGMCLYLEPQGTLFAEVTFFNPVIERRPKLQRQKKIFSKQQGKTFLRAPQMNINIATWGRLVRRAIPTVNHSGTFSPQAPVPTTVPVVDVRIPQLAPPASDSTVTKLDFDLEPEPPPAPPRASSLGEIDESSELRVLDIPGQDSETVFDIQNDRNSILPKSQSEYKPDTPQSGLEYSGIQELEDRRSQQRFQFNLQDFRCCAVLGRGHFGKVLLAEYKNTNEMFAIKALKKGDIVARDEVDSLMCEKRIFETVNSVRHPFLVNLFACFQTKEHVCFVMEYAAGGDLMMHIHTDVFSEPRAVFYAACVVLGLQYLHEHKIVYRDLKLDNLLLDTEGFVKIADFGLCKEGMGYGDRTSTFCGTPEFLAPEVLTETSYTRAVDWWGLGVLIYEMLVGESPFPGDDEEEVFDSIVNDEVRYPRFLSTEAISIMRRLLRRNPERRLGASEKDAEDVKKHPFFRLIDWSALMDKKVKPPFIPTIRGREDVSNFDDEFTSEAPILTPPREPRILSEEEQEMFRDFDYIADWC
# MELK (human), sequence (Q14680 whole entry, looked up): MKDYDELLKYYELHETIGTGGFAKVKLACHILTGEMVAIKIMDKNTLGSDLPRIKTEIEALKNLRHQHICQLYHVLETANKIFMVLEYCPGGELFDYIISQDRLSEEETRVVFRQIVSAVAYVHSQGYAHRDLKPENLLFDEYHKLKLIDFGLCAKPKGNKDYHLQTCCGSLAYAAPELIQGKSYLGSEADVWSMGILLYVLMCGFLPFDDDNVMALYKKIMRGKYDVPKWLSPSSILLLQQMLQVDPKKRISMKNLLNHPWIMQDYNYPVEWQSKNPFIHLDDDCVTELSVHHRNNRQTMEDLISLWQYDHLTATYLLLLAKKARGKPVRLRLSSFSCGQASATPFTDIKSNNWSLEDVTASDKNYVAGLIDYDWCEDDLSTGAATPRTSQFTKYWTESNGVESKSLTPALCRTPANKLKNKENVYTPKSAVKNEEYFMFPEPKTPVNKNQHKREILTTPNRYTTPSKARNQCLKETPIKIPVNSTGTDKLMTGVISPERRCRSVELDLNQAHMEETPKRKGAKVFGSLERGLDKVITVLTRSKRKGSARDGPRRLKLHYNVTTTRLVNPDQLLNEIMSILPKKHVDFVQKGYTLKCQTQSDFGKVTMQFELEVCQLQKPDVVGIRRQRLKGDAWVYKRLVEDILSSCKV
# GSK3B (human), sequence (P49841 whole entry, looked up): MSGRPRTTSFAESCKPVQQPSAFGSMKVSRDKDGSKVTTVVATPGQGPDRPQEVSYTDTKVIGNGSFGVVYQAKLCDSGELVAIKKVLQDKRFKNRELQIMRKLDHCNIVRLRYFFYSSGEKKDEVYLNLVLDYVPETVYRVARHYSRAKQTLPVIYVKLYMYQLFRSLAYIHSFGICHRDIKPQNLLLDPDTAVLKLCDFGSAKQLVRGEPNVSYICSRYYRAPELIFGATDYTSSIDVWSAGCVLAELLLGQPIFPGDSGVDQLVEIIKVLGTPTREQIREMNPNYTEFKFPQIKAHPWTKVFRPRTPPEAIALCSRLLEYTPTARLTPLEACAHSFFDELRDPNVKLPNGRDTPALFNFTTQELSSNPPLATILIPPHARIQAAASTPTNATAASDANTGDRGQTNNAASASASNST
# CHEK1 (human), sequence (O14757 whole entry, looked up): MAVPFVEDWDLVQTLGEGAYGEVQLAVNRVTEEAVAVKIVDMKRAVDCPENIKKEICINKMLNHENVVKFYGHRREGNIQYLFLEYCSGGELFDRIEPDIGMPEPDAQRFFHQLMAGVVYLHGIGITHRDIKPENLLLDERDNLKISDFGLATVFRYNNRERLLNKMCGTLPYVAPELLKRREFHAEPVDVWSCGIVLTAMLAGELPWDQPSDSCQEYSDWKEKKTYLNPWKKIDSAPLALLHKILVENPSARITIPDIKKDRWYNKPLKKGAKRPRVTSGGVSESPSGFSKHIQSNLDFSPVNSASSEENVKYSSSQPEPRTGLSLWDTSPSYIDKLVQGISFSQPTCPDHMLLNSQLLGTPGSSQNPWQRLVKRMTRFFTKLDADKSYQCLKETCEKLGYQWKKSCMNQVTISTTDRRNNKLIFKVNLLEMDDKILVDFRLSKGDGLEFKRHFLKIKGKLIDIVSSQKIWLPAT
structure (smiles),measurement,setting,value
Cc1ccc(Sc2cnc(Nc3cccc(Br)n3)s2)cc1C(=O)N1CCN(C(=O)CN)CC1,residual activity,[1]; compound 0.1 µM,80%
same,residual activity,[1]; compound 1.0 µM,94%
same,residual activity,[1]; compound 10.0 µM,46%
same,residual activity,AURKA (human); compound 0.1 µM,3%
same,residual activity,AURKA (human); compound 1.0 µM,3%
same,residual activity,AURKA (human); compound 10.0 µM,0%
same,residual activity,AURKB (human); compound 0.1 µM,65%
same,residual activity,AURKB (human); compound 1.0 µM,42%
same,residual activity,AURKB (human); compound 10.0 µM,7%
same,residual activity,CHEK1 (human); compound 0.1 µM,54%
same,residual activity,CHEK1 (human); compound 1.0 µM,53%
same,residual activity,CHEK1 (human); compound 10.0 µM,52%
same,residual activity,CSNK1D (human); compound 0.1 µM,99%
same,residual activity,CSNK1D (human); compound 1.0 µM,87%
same,residual activity,CSNK1D (human); compound 10.0 µM,68%
same,residual activity,EEF2K (human); compound 0.1 µM,113%
same,residual activity,EEF2K (human); compound 1.0 µM,96%
same,residual activity,EEF2K (human); compound 10.0 µM,92%
same,residual activity,EPHB1 (human); compound 0.1 µM,53%
same,residual activity,EPHB1 (human); compound 1.0 µM,36%
same,residual activity,EPHB4 (human); compound 0.1 µM,15%
same,residual activity,EPHB4 (human); compound 1.0 µM,13%
same,residual activity,EPHB4 (human); compound 10.0 µM,4%
same,residual activity,FGFR1 (human); compound 0.1 µM,47%
same,residual activity,FGFR1 (human); compound 1.0 µM,43%
same,residual activity,FGFR1 (human); compound 10.0 µM,11%
same,residual activity,FLT1 (human); compound 0.1 µM,56%
same,residual activity,FLT1 (human); compound 1.0 µM,52%
same,residual activity,FLT1 (human); compound 10.0 µM,19%
same,residual activity,GCK (human); compound 0.1 µM,101%
same,residual activity,GCK (human); compound 1.0 µM,93%
same,residual activity,GCK (human); compound 10.0 µM,33%
same,residual activity,GSK3B (human); compound 0.1 µM,46%
same,residual activity,GSK3B (human); compound 1.0 µM,41%
same,residual activity,GSK3B (human); compound 10.0 µM,37%
same,residual activity,HIPK1 (human); compound 0.1 µM,45%
same,residual activity,HIPK1 (human); compound 1.0 µM,42%
same,residual activity,HIPK1 (human); compound 10.0 µM,5%
same,residual activity,HIPK2 (human); compound 0.1 µM,14%
same,residual activity,HIPK2 (human); compound 1.0 µM,13%
same,residual activity,HIPK2 (human); compound 10.0 µM,5%
same,residual activity,IGF1R (human); compound 0.1 µM,2%
same,residual activity,IGF1R (human); compound 1.0 µM,2%
same,residual activity,IGF1R (human); compound 10.0 µM,2%
same,residual activity,MAP2K2 (human); compound 0.1 µM,86%
same,residual activity,MAP2K2 (human); compound 1.0 µM,77%
same,residual activity,MAP3K1 (human); compound 0.1 µM,46%
same,residual activity,MAP3K1 (human); compound 1.0 µM,35%
same,residual activity,MAP3K1 (human); compound 10.0 µM,5%
same,residual activity,MAP3K5 (human); compound 0.1 µM,106%
same,residual activity,MAP3K5 (human); compound 1.0 µM,101%
same,residual activity,MAP3K9 (human); compound 0.1 µM,78%
same,residual activity,MAP3K9 (human); compound 1.0 µM,69%
same,residual activity,MAP3K9 (human); compound 10.0 µM,17%
same,residual activity,MAPK1 (human); compound 0.1 µM,99%
same,residual activity,MAPK1 (human); compound 1.0 µM,103%
same,residual activity,MAPK1 (human); compound 10.0 µM,85%
same,residual activity,MAPK10 (human); compound 0.1 µM,94%
same,residual activity,MAPK10 (human); compound 1.0 µM,107%
same,residual activity,MAPK10 (human); compound 10.0 µM,54%
same,residual activity,MAPK13 (human); compound 0.1 µM,97%
same,residual activity,MAPK13 (human); compound 1.0 µM,24%
same,residual activity,MAPK13 (human); compound 10.0 µM,5%
same,residual activity,MAPK9 (human); compound 0.1 µM,98%
same,residual activity,MAPK9 (human); compound 1.0 µM,94%
same,residual activity,MAPK9 (human); compound 10.0 µM,54%
same,residual activity,MARK4 (human); compound 0.1 µM,101%
same,residual activity,MARK4 (human); compound 1.0 µM,118%
same,residual activity,MARK4 (human); compound 10.0 µM,43%
same,residual activity,MELK (human); compound 0.1 µM,42%
same,residual activity,MELK (human); compound 1.0 µM,15%
same,residual activity,MELK (human); compound 10.0 µM,5%
same,residual activity,MYLK (human); compound 0.1 µM,51%
same,residual activity,MYLK (human); compound 1.0 µM,43%
same,residual activity,MYLK (human); compound 10.0 µM,5%
same,residual activity,[2]; compound 0.1 µM,44%
same,residual activity,[2]; compound 1.0 µM,44%
same,residual activity,[2]; compound 10.0 µM,16%
same,residual activity,PAK6 (human); compound 0.1 µM,71%
same,residual activity,PAK6 (human); compound 1.0 µM,72%
same,residual activity,PAK6 (human); compound 10.0 µM,27%
same,residual activity,PKN2 (human); compound 0.1 µM,80%
same,residual activity,PKN2 (human); compound 1.0 µM,78%
same,residual activity,PKN2 (human); compound 10.0 µM,32%
same,residual activity,PRKCZ (human); compound 0.1 µM,104%
same,residual activity,PRKCZ (human); compound 1.0 µM,98%
same,residual activity,PRKCZ (human); compound 10.0 µM,58%
same,residual activity,SRC (human); compound 0.1 µM,22%
same,residual activity,SRC (human); compound 1.0 µM,20%
same,residual activity,SRC (human); compound 10.0 µM,2%
same,residual activity,[3]; compound 0.1 µM,64%
same,residual activity,[3]; compound 1.0 µM,62%
same,residual activity,[3]; compound 10.0 µM,8%
same,residual activity,SYK (human); compound 0.1 µM,82%
same,residual activity,SYK (human); compound 1.0 µM,64%
same,residual activity,SYK (human); compound 10.0 µM,28%
same,residual activity,TAOK1 (human); compound 0.1 µM,42%
same,residual activity,TAOK1 (human); compound 1.0 µM,33%
same,residual activity,TTK (human); compound 0.1 µM,75%
same,residual activity,TTK (human); compound 1.0 µM,73%
same,residual activity,TTK (human); compound 10.0 µM,42%
same,residual activity,YES1 (human); compound 0.1 µM,11%
same,residual activity,YES1 (human); compound 1.0 µM,11%
same,residual activity,YES1 (human); compound 10.0 µM,6%
